These results are taken from article PMC10009755, “Discovery and Characterization of BAY-805, a Potent and Selective Inhibitor of Ubiquitin-Specific Protease USP21” (Journal of Medicinal Chemistry, 2023).

Usually IC50 stands for the concentration needed to halve the response being measured. For orientation: ΔTm means the shift of the melting midpoint relative to a reference. One may read the Kd as the concentration at which binding is half-saturated. Higher therefore signals lower affinity. The Papp A→B is how fast a substance crosses the layer from the apical side. One may read the solubility as the dissolved amount per volume that the medium holds. Higher therefore signals a readily soluble substance.

The target in series [1] is T1, USP21 (Homo sapiens, UniProt Q9UK80).
T1 sequence (Q9UK80 1-565): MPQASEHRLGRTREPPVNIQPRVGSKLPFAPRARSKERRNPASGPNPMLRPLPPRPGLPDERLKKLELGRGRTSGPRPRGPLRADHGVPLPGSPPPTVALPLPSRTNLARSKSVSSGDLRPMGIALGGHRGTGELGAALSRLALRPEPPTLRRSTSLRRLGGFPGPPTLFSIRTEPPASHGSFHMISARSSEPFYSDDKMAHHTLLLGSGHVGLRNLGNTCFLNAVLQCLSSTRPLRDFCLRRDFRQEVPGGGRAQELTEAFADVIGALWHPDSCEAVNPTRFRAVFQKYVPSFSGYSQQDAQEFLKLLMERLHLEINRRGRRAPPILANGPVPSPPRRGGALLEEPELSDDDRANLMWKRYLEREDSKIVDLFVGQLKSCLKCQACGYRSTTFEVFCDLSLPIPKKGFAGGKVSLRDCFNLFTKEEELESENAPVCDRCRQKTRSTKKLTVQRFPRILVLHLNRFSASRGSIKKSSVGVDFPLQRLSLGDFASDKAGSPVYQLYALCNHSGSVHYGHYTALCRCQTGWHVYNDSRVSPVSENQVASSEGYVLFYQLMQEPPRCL
Method: The final assay volume was 6 μL. […] First, 2 μL of 1 nM USP21 (or selectivity enzyme) solution was added to the compound plate and preincubated for 15–20 min at room temperature. […] The reaction was stopped by 50 mM citric acid in 25 mM HEPES, pH 7.5, containing 0.01% BSA. […] The USP21 and USP22 were measured with five flashes and USP2 and USP7 in fly mode.

For series [2], the target named is T2, USP2 (Homo sapiens, UniProt O75604).
T2 construct: His tag
T2 sequence (O75604 259-605): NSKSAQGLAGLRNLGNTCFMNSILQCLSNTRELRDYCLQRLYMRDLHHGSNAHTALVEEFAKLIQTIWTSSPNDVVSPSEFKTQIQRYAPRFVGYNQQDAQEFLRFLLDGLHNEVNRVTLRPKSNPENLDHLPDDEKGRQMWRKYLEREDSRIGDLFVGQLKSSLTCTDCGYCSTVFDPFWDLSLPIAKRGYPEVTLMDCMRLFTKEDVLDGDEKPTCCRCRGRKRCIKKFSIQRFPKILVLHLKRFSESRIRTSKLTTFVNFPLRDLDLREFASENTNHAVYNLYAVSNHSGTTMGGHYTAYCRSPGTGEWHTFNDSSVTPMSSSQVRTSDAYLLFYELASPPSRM
Put plainly: hUSP2 Ub-rhodamine 110 assay. The note with it: arithmetic means of multiple measurements; read-out: IC50 hUSP2 Ub-Rhod. It is filed as biochemical. The procedure:
The final assay volume was 6 μL.

For series [3], the target named is T1, USP21. Put plainly: Thermal shift assay (TSA). It is filed as binding. Also on record: purchased Ubiquigent (DUBprofiler service). To be noted: 100 μM compound. The procedure: Experiments were carried out with the QuantStudio7 Flex Real-Time PCR system (Thermo Fisher Scientific) in a 384-well plate format with 5 μL of reaction volume. Melting curves were obtained at an USP21 protein concentration of 3.8 μM and 5xSYPRO Orange (Invitrogen) using a buffer containing 20 mM Tris, pH 7.5; 150 mM NaCl; 10% glycerol; and 1.0 mM TCEP. […] For binding experiments, compounds were added from 10 mM stock solution to a final concentration of 100 μM. As a control, 1% DMSO was used. Scans were measured from 25 to 95 °C at a scanning rate of 4 °C/min. All TSA data were analyzed using a Genedata Assay Analyzer.

The nature of series [4]: log D measurement (HPLC). To be noted: reverse-phase HPLC, pH 7.5, pH 7.5, HPLC method; read-out: logD7.5. Format: physicochemical. On the procedure:
log D values at pH 7.5 were recorded using an indirect method for determining hydrophobicity constants by reverse-phase HPLC. A series of compounds with well-known log D values were used for calibration. Test compounds were injected into the same HPLC system. The lipophilicity of compounds was then assessed by comparison to the calibration curve.

The target of series [5] is T1, USP21. The source holds these as a separate data set.
Method: To this end, we developed a USP21 activity assay that is based on the deubiquitination of a STING-derived peptide (a USP21-specific substrate[17],[18]) by purified recombinant human full-length USP21 using time-resolved fluorescence resonance energy transfer (TR-FRET) technology (referred to as a homogeneous time-resolved fluorescence (HTRF)-assay, for details see the Supporting Information).[39]
All substrate and enzyme solutions were diluted in an assay buffer. […] Incubation time was 15–20 min at room temperature. […] The stop solution (DUB inhibitor PR619, Abcam) was prepared in 25 mM HEPES, pH 7.5 (Alfa Aesar) containing 0.01% BSA and then left for 10 min at room temperature before filtering with a 0.2 μM PES Membrane (Thermo Fisher). The reaction was stopped with the addition of 2 μL of 200 μM PR619. […] The plates were measured on the ViewLux in screening or PHERAstar FSX in compound profiling. […] The number of flashes per well was set to 3. All of the experimental data were plotted using Genedata analysis. The Z′-factor and S/B of the assay were >0.7 and ∼2, respectively.
Series [6] has as its system NF-κB activation. Put plainly: NF-κB reporter assay. Format: cell-based. To be noted: HEK293T cells, up to 10 μM. On the procedure: Yang and colleagues reported that USP21 inhibition induces NF-κB activation by preventing deubiquitination of RIP1.[15] K63 ubiquitinated RIP1 is required for NF-κB activation, and thus USP21-mediated deubiquitination of RIP1 shuts down the NF-κB pathway.
Four hours after replating, cells were treated with compounds or DMSO (note: DMSO concentrations were kept consistent across all cells). Promega Dual-Luciferase Reporter Assay kit was then used to prepare samples for Firefly and Renilla signal measurement on a CLARIOstar microplate reader (BMG) 20 h after compound treatment. Relative luciferase units were calculated by normalizing the Firefly signal to the background Renilla signal, followed by normalization to DMSO controls of wild-type USP21.
A general note: A reporter such as luciferase makes a cellular process visible.

Series [7] concerns the target T3, USP21 (Homo sapiens, UniProt Q9UK80).
T3 construct: made in house; host or cells: E. coli BL21(DE3)
Put plainly: SPR binding. The note with it: single-cycle kinetics, 15 °C.
Method: For binding analysis, a multi-cycle protocol was chosen with a contact time of 60 s, a flow rate of 30 μL/min, and a dissociation time of 200 s. Binding constants were calculated from the steady state using Biacore Insight Evaluation Software, assuming a 1:1 binding model as an average of four titrations. […] Immobilization levels were kept similar to the above. […] The running buffer of the duplicate measurements is 10 mM HEPES, pH 7.4, 150 mM NaCl, 0,005% surfactant P20 further supplemented with 2 mg/mL BSA and 1% DMSO. Affinity and kinetic analysis were performed using Biacore Insight Evaluation Software on double reference subtracted sensorgrams.

Series [8] concerns the target T4, C-terminal HiBiT-tagged USP21 (Homo sapiens, UniProt Q9UK80).
T4 construct: expressed in transfected cells; host or cells: HEK293T
T4 sequence (Q9UK80 1-565): T1 sequence (Q9UK80 1-565)
Put plainly: USP21 HiBiT CETSA. Format: cell-based. To be noted: 49 °C, HEK293T cells. The procedure: In particular, we utilized a HiBiT CETSA assay format[42],[43] conducted in intact HEK293T cells. Cells were transfected with USP21 fused to a small proluminescent NanoLuc HiBiT tag, which, when complemented with the Large BiT NanoLuc fragment, produces a quantifiable luminescence signal.
HEK293T cells were seeded in a six-well plate at 8 × 10^5 cells/well in 2 mL of DMEM supplemented with 10% FBS, penicillin (100 U/mL), and streptomycin (100 μg/mL) and transfected 4 h after seeding using an X-tremeGENE HP transfection reagent, following the manufacturer’s instructions with a total of 2 μg of plasmid constructs (C-terminally tagged USP21 HiBiT and empty pCDNA3.1 vector). […] The breathable paper adhesive film was then replaced with a PCR adhesive film, and cells were heated at indicated temperatures in an Applied Biosystems VeritiPro thermal cycler for 3 min, followed by 3 min incubation at rt before the addition of LgBiT solution (200 nM LgBiT, 2% NP-40, protease inhibitors (Roche cOmplete, ethylenediaminetetraacetic acid (EDTA)-free Protease Inhibitor) in OptiMEM no phenol red (Gibco)) to lyse cells.

Series [9] can be described thus: in vitro. It is filed as in vitro ADME. To be noted: human, Caco-2, pH 7.2. The procedure:
Caco-2 cells [purchased from the German Collection of Microorganisms and Cell Cultures (DSMZ)] were seeded at a density of 4.5 × 10^4 cells/well on 24-well insert plates [0.4 μm pore size, 0.3 cm^2 (Costar)] and grown for 13–15 days in DMEM medium supplemented with 10% fetal calf serum (FCS), 1% GlutaMAX (100×, Gibco), 100 U/mL penicillin, 100 μg/mL streptomycin (Gibco), and 1% nonessential amino acids (100×, Thermo Fischer Scientific). […] The medium was changed every 2–3 days.
The bidirectional transport assay for the evaluation of Caco-2 permeability was undertaken in 24-well insert plates using a robotic system (Tecan). Before the assay was run, the culture medium was replaced by a transport medium (FCS-free HEPES carbonate transport buffer pH 7.2). For the assessment of monolayer integrity, the transepithelial electrical resistance (TEER) was measured. Only monolayers with a TEER of at least 400 Ω·cm^2 were used. Test compounds were pre-dissolved in DMSO and added either to the apical or basolateral compartment at a final concentration of 2 μM. The evaluation was performed in triplicate. […] The efflux ratio (ER) basolateral (B) to apical (A) was calculated by dividing Papp B–A by Papp A–B.

Series [10] in a line: Aqueous solubility. To be noted: PBS pH 6.5, pH 6.5, PBS pH 6.5. Format: physicochemical. On the procedure: Test compounds were applied as DMSO solutions or directly from powder. After the addition of the buffer, solutions were shaken at rt for 24 h. The undissolved material was removed by filtration or centrifugation. The compound dissolved in the supernatant was quantified by HPLC-UV or HPLC-MS/MS.

In brackets after ≈: the same amount, converted by molar mass. Like-named read-outs stand apart in the source and are kept apart here. A value given as a limit tells only on which side of the number the result lay.

In the case of `O=C(CNC(=O)C1CCCC1)Nc1nnc(Cc2ccc([N+](=O)[O-])cc2)s1` [Compound 2, [O-][N+](=O)c1ccc(Cc2nnc(NC(=O)CNC(=O)C3CCCC3)s2)cc1], the IC50 in series [1], in series [2] and in series [5] was greater than 25 µM in each case. Besides, the ΔTm at 100 µM in series [3] was 3.5 °C. Besides, the chromatographic logD in series [4] worked out at 2.1.

In the case of `CC(C)C(NC(=O)C1CCCC1)C(=O)Nc1nnc(Cc2ccc([N+](=O)[O-])cc2)s1` (centres unmarked) [Compound 3, CC(C)C(NC(=O)C1CCCC1)C(=O)Nc2nnc(Cc3ccc(cc3)[N+](=O)[O-])s2], the IC50 in series [1], in series [2] and in [5] was greater than 25 µM each time. For the same molecule, the ΔTm at 100 µM in series [3] came out at 0.3 °C. The chromatographic logD in series [4] worked out at 2.8.

For the molecule `N#Cc1ccc(Cc2nnc(NC(=O)[C@@H](CO)NC(=O)C3(C(F)(F)F)CCCCC3)s2)cc1` [Compound 18, OC[C@@H](NC(=O)C1(CCCCC1)C(F)(F)F)C(=O)Nc2nnc(Cc3ccc(cc3)C#N)s2], the “NF-κB activation (in words)” value in series [6] was “cellular activity was not observed”. The molecule further returned a Kd in series [7] of 0.0058 µM. In addition, the “cellular thermal stabilization of USP21 (in words)” value in series [8] is reported as “strong cellular target engagement”. The same molecule had a Papp A→B at 2 h, 2 µM in series [9] (2 μM, 2 h) of 1.4 ×10⁻⁶ cm/s. Besides, the efflux ratio at 2 h, 2 µM in [9] (Papp B–A / Papp A–B, read-out: Caco-2 efflux ratio (ER)) amounted to 14. In addition, in series [10], the concentration in solution (solubility at 24 h) came to 91.2 µM (≈ 43.9 µg/mL). For the same molecule, the chromatographic logD in [4] was 2.5.
